Article PMC3411462, “Long-acting κ opioid antagonists nor-BNI, GNTI and JDTic: pharmacokinetics in mice and lipophilicity” (BMC Pharmacology, 2012)
Where “and” joins values, the source holds several entries; their conditions need not be identical. Equal values may be shown once. Read-outs that look alike come from different tables or passages of the source. Marks after values point to notes of the source that are not given here.

Key:
[1] = parameters: method as in PMID 17049114; conditions: mice, i.p.; cited from earlier work
[2] = cited from earlier work
[3] = Brain and plasma concentrations in mice after intraperitoneal administration (LC-MS-MS), non-compartmental analysis; assay type: in vivo; conditions: for [drug],plasma (free base equivalent): listed as GNTI.2HCl.H2O; for [drug],plasma (free base equivalent) / concentration at 0.5 h / concentration at 1 h / concentration at 2 h / concentration at 4 h / concentration at 24 h / AUC(0-inf) / CL/F / Vd/F: 10 mg/kg
Method: Doses are reported by weight of the specified salt. […] Body mass was measured to ±0.1 g.
Mice were sacrificed by cervical dislocation, then decapitated for collection of brain and blood samples. Trunk blood was collected in 1.5 mL polypropylene micro-centrifuge tubes, shaken with a few crystals of EDTA and cooled in ice-water. Samples were centrifuged at 14,000 rpm (revolutions per minute) for 15 minutes at 3 °C, then stored in glass sample vials at −20 °C until analysis. Brains were removed and immersed for 30 seconds in 2-methylbutane over dry ice, then stored in polypropylene tubes at −20 °C until sample preparation. Sample tubes were thawed in ice-water, distilled water was added (2:1 by weight) and the brain homogenized with a probe sonicator for 3 minutes over ice-water (Fisher Sonic Dismembrator 300 at 35% power). The probe was rinsed with ethanol and distilled water between samples. Brain homogenate was stored in glass sample vials at −20 °C until analysis by LC-MS-MS.
Drug concentrations (ng mL^-1) refer to the free base, and were measured by liquid chromatography-tandem mass spectrometry (LC-MS-MS) as described previously. Briefly, samples were shaken with 3 volumes of methanol and centrifuged at 3000 g. Aliquots of the supernatants were diluted with 5 volumes of water containing an appropriate internal standard. Extracts from in vitro and in vivo experiments were analyzed by multiple reaction monitoring on an API3000 or API4000 LC-MS-MS system with electrospray ion source, controlled and analyzed using the Analyst software package (Applied Biosystems, Foster City, CA). Chromatography was conducted on a Sprite Armor C18 analytical column (20 × 2.1 mm, 10 μm particle size, Analytical Sales and Products, Pompton Plains, NJ) with a 0.5 μm PEEK guard filter. Compounds were eluted with a gradient from 2% to 95% acetonitrile in water, both containing 0.1% formic acid. Compounds were detected in positive ion mode, tuned to the mass transition with the largest intensity. Analyte concentrations were determined by comparison of analyte:internal standard peak area ratios to those of standards prepared in the appropriate matrices.
For calculation of mean concentrations, the earliest values below the MRC were substituted by MRC ÷ 2, as recommended elswhere. Pharmacokinetic parameters were calculated from mean concentrations using PKSolver, employing non-compartmental analysis for extravascular administration. Curves in figures were fitted using Origin 8.5 (OriginLab, Northampton, MA) using 2-compartment models. Confidence intervals and two-tailed p values (unpaired t test) were calculated using Graphpad Quickcalcs. One outlier was identified using Grubbs' test (p < 0.01) and excluded from the analysis; see Additional file 1.

[4] = 0.5 h, 10 mg/kg i.p., individual mice
[5] = 1 h, 10 mg/kg i.p., individual mice
[6] = 2 h, 10 mg/kg i.p., individual mice
[7] = male, Swiss-Webster, mouse, ip, plasma NCA, 10 mg/kg i.p.

## N=C(N)Nc1ccc2[nH]c3c(c2c1)C[C@@]1(O)[C@H]2Cc4ccc(O)c5c4[C@@]1(CCN2CC1CC1)[C@H]3O5 [GNTI, 5’-guanidinonaltrindole]
[1]
  Sedation, duration: less than 3 hours
  Sedation, time to maximum: ≤ 20 min
[2]; 25 °C, ref Tocris product information sheet
  Water solubility: >100^a mmol L^-1
[2]; ref Tocris product information sheet (Table 1)
  Water solubility: at least 100 mM
[3]; 10 mg kg^-1 i.p., mice
  Time of maximal mean plasma level: 30 min
[3]; [4]
  [drug],brain (free base equivalent): <120 ng/g
  [drug],plasma (free base equivalent): 3610 ng/mL and 1790 ng/mL and 3840 ng/mL
[3]; [5]
  [drug],brain (free base equivalent): <120 ng/g
  [drug],plasma (free base equivalent): 1750 ng/mL and 2420 ng/mL and 4880 ng/mL
[3]; [6]
  [drug],brain (free base equivalent): <120 ng/g
  [drug],plasma (free base equivalent): 1120 ng/mL and 3700 ng/mL and 2910 ng/mL
[3]; 4 h, 10 mg/kg i.p., individual mice
  [drug],plasma (free base equivalent): 114 ng/mL and 206 ng/mL
[3]; 24 h, 10 mg/kg i.p., individual mice
  [drug],plasma (free base equivalent): <13 ng/mL
[3]; all timepoints, 10 mg kg^-1 i.p.
  Brain levels (below MRC): < 120 ng/mL
[3]; brain, 10 mg kg^-1 i.p., mice
  C max,brain: < 120 ng/mL
[3]; by 24 hours, 10 mg kg^-1 i.p.
  Decline of mean plasma concentration from peak: at least 98%
[3]; male, Swiss-Webster, mouse, brain and plasma (unbound), intraperitoneal, postmortem samples, 13–18 minutes after 39 mg kg^-1 GNTI·2CF3CO2H, read-out: Cmax,brain,u/Cmax,p,u
  Kp uu: < 0.0007
[3]; male, Swiss-Webster, mouse, brain and plasma, intraperitoneal, postmortem samples, 13–18 minutes after 39 mg kg^-1 GNTI·2CF3CO2H, read-out: Cmax,brain/Cmax,p
  Kp: 0.0085
[3]; male, Swiss-Webster, mouse, brain, ip, 0.5 h, 10 mg/kg i.p., individual mice, read-out: [drug],brain (free base equivalent)
  concentration at 0.5 h: < 120 ng/g
[3]; male, Swiss-Webster, mouse, brain, ip, 0.5 h, 10 mg/kg i.p., read-out: mean (brain)
  concentration at 0.5 h: < 120 ng/g
[3]; male, Swiss-Webster, mouse, brain, ip, 1 h, 10 mg/kg i.p., individual mice, read-out: [drug],brain (free base equivalent)
  concentration at 1 h: < 120 ng/g
[3]; male, Swiss-Webster, mouse, brain, ip, 2 h, 10 mg/kg i.p., individual mice, read-out: [drug],brain (free base equivalent)
  concentration at 2 h: < 120 ng/g
[3]; male, Swiss-Webster, mouse, in vivo, ip, ·2HCl salts, 10 mg kg^-1 i.p., mice
  Tmax: 0.5 h
[3]; [7]
  AUC(0-t): 9450 ng·h/mL
  Tmax: 0.5 h
[3]; male, Swiss-Webster, mouse, ip, plasma NCA, 10 mg/kg i.p., read-out: Lambda_z (converted)
  k el: 6.68e-05 s⁻¹
[3]; male, Swiss-Webster, mouse, ip, plasma NCA, 10 mg/kg i.p., read-out: MRT 0-inf_obs
  MRT inf: 2.18 h
[3]; male, Swiss-Webster, mouse, ip, plasma NCA, 10 mg/kg i.p., read-out: t1/2 (converted)
  half-life: 2.88 h
[3]; male, Swiss-Webster, mouse, ip, plasma, 10 mg kg^-1 i.p., mice, read-out: C max,p
  Cmax: 3080 ng/mL
[3]; male, Swiss-Webster, mouse, plasma, intraperitoneal, 0.5 h, read-out: Conc (plasma, NCA input)
  concentration at 0.5 h: 3080 ng/mL
[3]; male, Swiss-Webster, mouse, plasma, intraperitoneal, 1 h, read-out: Conc (plasma, NCA input)
  concentration at 1 h: 3020 ng/mL
[3]; male, Swiss-Webster, mouse, plasma, intraperitoneal, 2 h, read-out: Conc (plasma, NCA input)
  concentration at 2 h: 2580 ng/mL
[3]; male, Swiss-Webster, mouse, plasma, intraperitoneal, 4 h, read-out: Conc (plasma, NCA input)
  concentration at 4 h: 154 ng/mL
[3]; male, Swiss-Webster, mouse, plasma, intraperitoneal, 24 h, read-out: Conc (plasma, NCA input)
  concentration at 24 h: 8.8 ng/mL
[3]; male, Swiss-Webster, mouse, plasma, ip, 0.5 h, 10 mg/kg i.p., read-out: mean (plasma)
  concentration at 0.5 h: 3080 ng/mL
[3]; male, Swiss-Webster, mouse, plasma, ip, 1 h, 10 mg/kg i.p., read-out: mean (plasma)
  concentration at 1 h: 3020 ng/mL
[3]; male, Swiss-Webster, mouse, plasma, ip, 2 h, 10 mg/kg i.p., read-out: mean (plasma)
  concentration at 2 h: 2580 ng/mL
[3]; male, Swiss-Webster, mouse, plasma, ip, 4 h, 10 mg/kg i.p., individual mice, read-out: [drug],plasma (free base equivalent)
  concentration at 4 h: 142 ng/mL
[3]; male, Swiss-Webster, mouse, plasma, ip, 4 h, 10 mg/kg i.p., read-out: mean (plasma)
  concentration at 4 h: 154 ng/mL
[3]; male, Swiss-Webster, mouse, plasma, ip, 24 h, 10 mg/kg i.p., individual mice, read-out: [drug],plasma (free base equivalent)
  concentration at 24 h: 13 ng/mL
[3]; male, Swiss-Webster, mouse, plasma, ip, 24 h, 10 mg/kg i.p., <MRC substituted by MRC/2, read-out: mean (plasma)
  concentration at 24 h: 9 ng/mL
[3]; male, Swiss-Webster, mouse, plasma, ip, plasma NCA, 10 mg/kg i.p., read-out: AUC 0-inf_obs
  AUC(0-inf): 9490 ng·h/mL
[3]; male, Swiss-Webster, mouse, plasma, ip, plasma NCA, 10 mg/kg i.p., read-out: Cl/F_obs (converted)
  CL/F: 17.6 mL/min/kg
[3]; male, Swiss-Webster, mouse, plasma, ip, plasma NCA, 10 mg/kg i.p., read-out: Vz/F_obs
  Vd/F: 4.38 L/kg
[3]; male, Swiss-Webster, mouse, plasma, ip, plasma, 10 mg kg^-1 i.p., non-compartmental analysis, read-out: AUC 0–∞,p
  AUC(0-inf): 9490 ng·h/mL
[3]; male, Swiss-Webster, mouse, plasma, ip, plasma, 10 mg kg^-1 i.p., non-compartmental analysis, read-out: CL/F (converted)
  CL/F: 16.7 mL/min/kg
[3]; male, Swiss-Webster, mouse, plasma, ip, plasma, 10 mg kg^-1 i.p., non-compartmental analysis, read-out: V z /F
  Vd/F: 4.4 L/kg
[3]; plasma NCA, 10 mg/kg i.p.
  AUMC 0-inf_obs: 20681.1 ng/ml*h^2
  Tlag: 0 h
[3]; unbound brain, 10 mg kg^-1 i.p., in vivo brain binding assumed at least 3-fold greater than homogenate
  C max,brain,u: < 6 nM
